Counter-ions that a name gives are not always drawn.
Biological target: T1, TAAR1 (Mus musculus, UniProt Q923Y8)
T1 construct: expressed in transfected cells; host or cells: HEK293 (ATCC # CRL-1573), stably transfected with pIRESneo2 expression plasmid; membranes prepared
T1 sequence (Q923Y8 whole entry): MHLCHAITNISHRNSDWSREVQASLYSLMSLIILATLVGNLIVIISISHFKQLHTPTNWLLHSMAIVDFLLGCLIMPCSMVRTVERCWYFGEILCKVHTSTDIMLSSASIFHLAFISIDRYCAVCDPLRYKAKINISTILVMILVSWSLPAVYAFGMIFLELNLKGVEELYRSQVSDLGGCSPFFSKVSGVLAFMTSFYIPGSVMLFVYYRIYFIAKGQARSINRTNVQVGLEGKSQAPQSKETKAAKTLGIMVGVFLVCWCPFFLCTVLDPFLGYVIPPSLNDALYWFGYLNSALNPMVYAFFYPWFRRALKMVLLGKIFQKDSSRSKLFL
Experiment: Radioligand binding assay on membranes of HEK293 cells stably expressing TAAR1
Details: mouse TAAR1; radioligand [3H]-rac-2-(1,2,3,4-tetrahydro-1-naphthyl)-2-imidazoline at 60 nM; 4° C., 30 min
Procedure: For the construction of expression plasmids the coding sequences of human, rat and mouse TAAR 1 were amplified from genomic DNA essentially as described by Lindemann et al.. The Expand High Fidelity PCR System (Roche Diagnostics) was used with 1.5 mM Mg^2+ and purified PCR products were cloned into pCR2.1-TOPO cloning vector (Invitrogen) following the instructions of the manufacturer. PCR products were subcloned into the pIRESneo2 vector (BD Clontech, Palo Alto, Calif.), and expression vectors were sequence verified before introduction in cell lines.
For the generation of stably transfected cell lines HEK293 cells were transfected with the pIRESneo2 expression plasmids containing the TAAR coding sequences (described above) with Lipofectamine 2000 (Invitrogen) according to the instructions of the manufacturer, and 24 hrs post transfection the culture medium was supplemented with 1 mg/ml G418 (Sigma, Buchs, Switzerland). After a culture period of about 10 d clones were isolated, expanded and tested for responsiveness to trace amines (all compounds purchased from Sigma) with the cAMP Biotrak Enzyme immunoassay (EIA) System (Amersham) following the non-acetylation EIA procedure provided by the manufacturer.
Cells at confluence were rinsed with ice-cold phosphate buffered saline without Ca^2+ and Mg^2+ containing 10 mM EDTA and pelleted by centrifugation at 1000 rpm for 5 min at 4° C. The pellet was then washed twice with ice-cold phosphate buffered saline and cell pellet was frozen immediately by immersion in liquid nitrogen and stored until use at −80° C. Cell pellet was then suspended in 20 ml HEPES-NaOH (20 mM), pH 7.4 containing 10 mM EDTA, and homogenized with a Polytron (PT 3000, Kinematica) at 10,000 rpm for 10 s. The homogenate was centrifuged at 48,000×g for 30 min at 4° C. and the pellet resuspended in 20 ml HEPES-NaOH (20 mM), pH 7.4 containing 0.1 mM EDTA (buffer A), and homogenized with a Polytron at 10,000 rpm for 10 s. The homogenate was then centrifuged at 48,000×g for 30 min at 4° C. and the pellet resuspended in 20 ml buffer A, and homogenized with a Polytron at 10,000 rpm for 10 s. Protein concentration was determined by the method of Pierce (Rockford, Ill.). The homogenate was then centrifuged at 48,000×g for 10 min at 4° C., resuspended in HEPES-NaOH (20 mM), pH 7.0 including MgCl2 (10 mM) and […] homogenized with a Polytron at 10,000 rpm for 10 s.
Binding assay was performed at 4° C. in a final volume of 1 ml, and with an incubation time of 30 min. […] Non-specific binding was defined as the amount of [^3H]-rac-2-(1,2,3,4-tetrahydro-1-naphthyl)-2-imidazoline bound in the presence of the appropriate unlabelled ligand (10 μM). Competing ligands were tested in a wide range of concentrations (10 pM-30 μM). […] Each experiment was performed in duplicate. Al incubations were terminated by rapid filtration through UniFilter-96 plates (Packard Instrument Company) and glass filter GF/C, pre-soaked for at least 2 h in polyethylenimine 0.3%, and using a Filtermate 96 Cell Harvester (Packard Instrument Company). The tubes and filters were then washed 3 times with 1 ml aliquots of cold buffer B. Filters were not dried and soaked in Ultima gold (45 μl/well, Packard Instrument Company) and bound radioactivity was counted by a TopCount Microplate Scintillation Counter (Packard Instrument Company).
Work on Brc1ccc(CC2=NCCN2)c2ccccc12 [Example 104, 2-(4-Bromo-naphthalen-1-ylmethyl)-4,5-dihydro-1H-imidazole] yielded a Ki of 0.008 µM.
c1cc(CC2=NCCN2)c2ccoc2c1 [Example 168, 2-Benzofuran-4-ylmethyl-4,5-dihydro-1H-imidazole hydrochloride] gave a Ki of 0.045 µM.
Compound COc1cc(Br)c(CC2=NCCN2)cc1OC [Example 34, 2-(2-Bromo-4,5-dimethoxy-benzyl)-4,5-dihydro-1H-imidazole hydrochloride] has a Ki of 0.031 µM.
COc1c(CC2=NCCN2)ccc2occc12 [Example 169, 2-(4-Methoxy-benzofuran-5-ylmethyl)-4,5-dihydro-1H-imidazole hydrochloride] gave a Ki of 0.045 µM.
Work on CCc1cc(OC)cc(CC)c1Cc1ncc[nH]1 [Example 210, 2-(2,6-Diethyl-4-methoxy-benzyl)-1H-imidazole] yielded a Ki of 0.048 µM.
For Clc1cccc(CC2=NCCN2)c1Cl [Example 17, 2-(2,3-Dichloro-benzyl)-4,5-dihydro-1H-imidazole], the Ki was 0.021 µM.
Compound c1ccc2c(CC3=NCCN3)csc2c1 [Example 143, 2-Benzo[b]thiophen-3-ylmethyl-4,5-dihydro-1H-imidazole] has a Ki of 0.004 µM.
With CCc1ccc(OCc2ccccc2)c(CC)c1Cc1ncc[nH]1 [Example 218, 2-(3-Benzyloxy-2,6-diethyl-benzyl)-1H-imidazole] the Ki was 0.047 µM.
Compound CCOc1ccc(CC)c(Cc2ncc[nH]2)c1CC [Example 217, 2-(3-Ethoxy-2,6-diethyl-benzyl)-1H-imidazole] has a Ki of 0.024 µM.
Work on Brc1ccccc1CC1=NCCN1 [Example 124, 2-(2-Bromo-benzyl)-4,5-dihydro-1H-imidazole] yielded a Ki of 0.044 µM.
CCc1c(Cl)ccc(F)c1CC1=NCCN1 [Example 198, 2-(3-Chloro-2-ethyl-6-fluoro-benzyl)-4,5-dihydro-1H-imidazole] showed a Ki of 0.036 µM.
In the case of [3H]c1ccc(CC)c(Cc2ncc[nH]2)c1CC [Example 112, 2-(2,6-Diethyl-3-tritio-benzyl)-1H-imidazole], the Ki is reported as 0.025 µM.
In the case of Cc1cc(C)c(C)c(CC2=NCCN2)c1C [Example 116, 2-(2,3,5,6-Tetramethyl-benzyl)-4,5-dihydro-1H-imidazole], the Ki is reported as 0.008 µM.
With Oc1ccc2ccccc2c1CC1=NCCN1 [Example 172, 1-(4,5-Dihydro-1H-imidazol-2-ylmethyl)-naphthalen-2-ol hydrochloride] the Ki was 0.05 µM.
In the case of CCOc1cc(CC)c(Cc2ncc[nH]2)c(CC)c1 [Example 215, 2-(4-Ethoxy-2,6-diethyl-benzyl)-1H-imidazole], the Ki is reported as 0.029 µM.

Same assay, conditions: radioligand used in the TAAR1 binding assay; species not given; read-out: calculated Kd value of the radioligand
Compound c1ccc2c(c1)CCCC2C1=NCCN1 (racemic) [[^3H]-rac-2-(1,2,3,4-tetrahydro-1-naphthyl)-2-imidazoline, reference compound] has a Kd of 60 nM.

Test system: not given
Experiment: not given
Details: not given
In the case of Brc1ccc(CC2=NCCN2)c2ccccc12 [Example 104, 2-(4-Bromo-naphthalen-1-ylmethyl)-4,5-dihydro-1H-imidazole], the melting point is reported as 133 to 135 °C.
